Laboratory results as given in USRE50528E1, “Compounds and compositions for modulating EGFR mutant kinase activities” (Yuhan Corporation, priority 2014, dated 2025).

What was measured:
[1] = target: T1, EGFR mutant T790M (Homo sapiens, UniProt P00533, T790M); assay: Kinase inhibition assay, EGFR mutant T790M; conditions: biochemical potency;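 also: truncated human EGFR mutant enzyme preincubated two hours with compound, then ATP plus ULight-PolyGT peptide for one hour, Europium-labeled antibody LANCE detection, IC50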
T1 construct: truncated human JAK3, EGFR mutants such as del E746-A750; purchased Carna Biosciences
T1 sequence (P00533 669-1210 T790M limits assumed): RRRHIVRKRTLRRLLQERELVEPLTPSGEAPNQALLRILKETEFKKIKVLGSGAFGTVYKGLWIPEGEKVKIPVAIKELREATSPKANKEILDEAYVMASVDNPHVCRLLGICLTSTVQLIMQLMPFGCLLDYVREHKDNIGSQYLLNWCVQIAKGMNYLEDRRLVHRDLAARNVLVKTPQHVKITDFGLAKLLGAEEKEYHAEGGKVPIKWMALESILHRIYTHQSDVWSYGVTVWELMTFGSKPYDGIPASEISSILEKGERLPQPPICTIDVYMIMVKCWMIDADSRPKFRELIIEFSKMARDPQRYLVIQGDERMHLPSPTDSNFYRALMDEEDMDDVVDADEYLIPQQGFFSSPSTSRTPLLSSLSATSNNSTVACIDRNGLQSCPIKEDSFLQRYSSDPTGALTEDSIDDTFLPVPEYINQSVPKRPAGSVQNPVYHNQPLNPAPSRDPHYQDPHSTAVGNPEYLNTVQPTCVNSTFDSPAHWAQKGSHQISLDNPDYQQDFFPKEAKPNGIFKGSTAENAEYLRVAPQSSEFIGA

[2] = target: T2, EGFR mutant Del19 (E746-A750) (Homo sapiens, UniProt P00533, DEL746-750); assay: Kinase inhibition assay, EGFR del E746-A750; type: biochemical; conditions: read-out: EGFR mutants Del19 (E746-A750);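 also: truncated human EGFR mutant kinase, two-hour preincubation with compound, then one-hour reaction with ATP and ULight-PolyGT peptide, LANCE Europium-antibody phosphorylation readout, IC50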
T2 construct: truncated human JAK3, EGFR mutants such as del E746-A750; purchased Carna Biosciences
T2 sequence (P00533 with tags, fused parts or gaps DEL746-750 limits assumed): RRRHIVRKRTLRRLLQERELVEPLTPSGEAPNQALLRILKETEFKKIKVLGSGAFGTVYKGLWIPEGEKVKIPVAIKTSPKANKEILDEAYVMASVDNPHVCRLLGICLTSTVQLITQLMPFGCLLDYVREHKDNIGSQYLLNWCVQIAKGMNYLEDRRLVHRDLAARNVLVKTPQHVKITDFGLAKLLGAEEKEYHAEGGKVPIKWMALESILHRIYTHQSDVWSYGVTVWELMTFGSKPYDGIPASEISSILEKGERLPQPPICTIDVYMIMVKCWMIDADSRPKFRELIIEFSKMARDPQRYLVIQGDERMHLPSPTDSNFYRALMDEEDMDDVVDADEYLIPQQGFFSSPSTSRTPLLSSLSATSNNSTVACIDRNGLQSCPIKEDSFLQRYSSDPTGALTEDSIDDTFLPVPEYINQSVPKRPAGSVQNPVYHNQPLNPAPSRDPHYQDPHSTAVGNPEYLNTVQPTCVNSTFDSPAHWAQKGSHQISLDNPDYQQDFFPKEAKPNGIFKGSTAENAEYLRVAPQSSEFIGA

[3] = target: T3, EGFR mutant L858R (Homo sapiens, UniProt P00533, L858R); assay: Kinase inhibition assay, EGFR L858R; type: biochemical; conditions: read-out: EGFR mutants L858R;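 also: truncated human EGFR L858R kinase with compound preincubation, ULight-PolyGT peptide phosphorylation read by Europium-antibody Lance detection, IC50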
T3 construct: truncated human JAK3, EGFR mutants such as del E746-A750; purchased Carna Biosciences
T3 sequence (P00533 669-1210 L858R limits assumed): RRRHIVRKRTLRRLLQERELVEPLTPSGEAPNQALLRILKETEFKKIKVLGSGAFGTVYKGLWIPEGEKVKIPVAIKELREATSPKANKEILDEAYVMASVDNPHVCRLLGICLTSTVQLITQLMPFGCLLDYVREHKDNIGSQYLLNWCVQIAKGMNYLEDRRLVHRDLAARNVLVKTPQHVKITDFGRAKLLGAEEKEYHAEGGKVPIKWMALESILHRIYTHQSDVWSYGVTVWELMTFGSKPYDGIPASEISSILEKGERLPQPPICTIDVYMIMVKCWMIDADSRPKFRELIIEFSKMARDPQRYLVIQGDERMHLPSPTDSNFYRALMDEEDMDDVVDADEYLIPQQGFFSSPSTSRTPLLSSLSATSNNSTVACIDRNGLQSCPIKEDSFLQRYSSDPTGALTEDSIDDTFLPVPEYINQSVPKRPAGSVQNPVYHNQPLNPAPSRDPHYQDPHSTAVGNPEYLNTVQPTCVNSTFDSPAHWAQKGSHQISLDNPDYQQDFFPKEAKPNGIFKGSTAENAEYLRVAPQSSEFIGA

[4] = target: T4, EGFR mutant L858R/T790M (Homo sapiens, UniProt P00533, L858R/T790M); assay: Kinase inhibition assay, EGFR L858R/T790M; type: biochemical; conditions: read-out: EGFR mutants L858R/T790M;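 also: truncated human enzyme preincubated two hours with compound, then one hour with one millimolar ATP and ULight-PolyGT peptide, Europium-labeled antibody detection, IC50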
T4 construct: truncated human JAK3, EGFR mutants such as del E746-A750; purchased Carna Biosciences
T4 sequence (P00533 669-1210 T790M/L858R limits assumed): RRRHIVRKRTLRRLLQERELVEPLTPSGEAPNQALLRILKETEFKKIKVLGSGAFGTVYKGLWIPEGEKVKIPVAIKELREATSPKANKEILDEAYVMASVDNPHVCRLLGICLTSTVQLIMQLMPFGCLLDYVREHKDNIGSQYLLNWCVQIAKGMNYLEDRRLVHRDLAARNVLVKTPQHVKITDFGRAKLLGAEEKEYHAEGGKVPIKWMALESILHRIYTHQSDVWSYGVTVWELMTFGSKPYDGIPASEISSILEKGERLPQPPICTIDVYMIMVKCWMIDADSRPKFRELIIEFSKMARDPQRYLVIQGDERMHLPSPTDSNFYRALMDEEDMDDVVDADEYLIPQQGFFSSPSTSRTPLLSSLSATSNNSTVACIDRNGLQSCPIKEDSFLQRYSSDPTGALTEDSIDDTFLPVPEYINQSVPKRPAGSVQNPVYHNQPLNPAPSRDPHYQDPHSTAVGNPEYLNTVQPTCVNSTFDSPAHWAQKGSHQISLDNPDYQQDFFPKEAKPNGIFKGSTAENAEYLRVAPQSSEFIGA

[5] = target: T5, EGFR mutant Del19/T790M (Homo sapiens, UniProt P00533, DEL746-750/T790M); assay: Kinase inhibition assay, EGFR del E746-A750/T790M; type: biochemical; conditions: read-out: EGFR mutants Del19/T790M
T5 construct: truncated human JAK3, EGFR mutants such as del E746-A750; purchased Carna Biosciences
T5 sequence (P00533 with tags, fused parts or gaps DEL746-750/T790M limits assumed): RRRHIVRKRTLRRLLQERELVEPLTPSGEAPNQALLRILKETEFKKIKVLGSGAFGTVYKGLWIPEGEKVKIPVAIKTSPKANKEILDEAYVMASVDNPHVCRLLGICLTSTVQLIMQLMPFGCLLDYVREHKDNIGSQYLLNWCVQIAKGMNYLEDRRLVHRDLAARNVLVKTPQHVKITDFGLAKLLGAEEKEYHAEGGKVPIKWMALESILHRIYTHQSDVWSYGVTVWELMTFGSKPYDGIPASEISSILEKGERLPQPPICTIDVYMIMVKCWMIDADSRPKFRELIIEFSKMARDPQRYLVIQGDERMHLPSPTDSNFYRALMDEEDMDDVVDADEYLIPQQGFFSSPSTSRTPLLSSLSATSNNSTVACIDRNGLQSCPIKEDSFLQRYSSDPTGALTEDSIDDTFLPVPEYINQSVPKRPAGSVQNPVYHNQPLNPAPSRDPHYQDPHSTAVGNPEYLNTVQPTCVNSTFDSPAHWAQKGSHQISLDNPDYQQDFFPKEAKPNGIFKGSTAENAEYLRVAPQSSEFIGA

[6] = target: T6, SYK (Homo sapiens, UniProt P43405); assay: Kinase inhibition assay, SYK; type: biochemical; conditions: biochemical potency;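 also: purified full-length human SYK pre-incubated 30 min with compound, then ULight-TK peptide phosphorylation for 1 h, detected with Europium-labeled antibody in Lance buffer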
T6 construct: Purified human, full-length SYK, KDR; purchased Carna Biosciences

| Compound | IC50 [1] | IC50 [2] | IC50 [3] | IC50 [4] | IC50 [5] | IC50 [6] |
| --- | --- | --- | --- | --- | --- | --- |
| C=CC(=O)Nc1cc(Nc2ncc(C)c(-n3cc(CN4CCOCC4)cn3)n2)c(OC)cc1N1CCN(C)CC1 [Compound 33, N-(4-methoxy-5-(5-methyl-4-(4-(morpholinomethyl)-1H-pyrazol-1-yl)pyrimidin-2-ylamino)-2-(4-methylpiperazin-1-yl)phenyl)acrylamide] | < 20 nM | 20 to 200 nM | 20 to 200 nM | 20 to 200 nM | < 20 nM | > 1000 nM |
| C=CC(=O)Nc1cc(Nc2nccc(-n3cc(CN4CCC4)c(-c4ccccc4)n3)n2)c(OC)cc1N(C)CCOC [Compound 95, N-(5-(4-(4-(azetidin-1-ylmethyl)-3-phenyl-1H-pyrazol-1-yl)pyrimidin-2-ylamino)-4-methoxy-2-((2-methoxyethyl)(methyl)amino)phenyl)acrylamide] | < 20 nM | < 20 nM | < 20 nM | < 20 nM | < 20 nM | > 1000 nM |
| C=CC(=O)Nc1cc(Nc2nccc(-n3cc(CN4CC(O)C4)c(C)n3)n2)c(OC)cc1N1CCOCC1 [Compound 15, N-(5-(4-(4-((3-hydroxyazetidin-1-yl)methyl)-3-methyl-1H-pyrazol-1-yl)pyrimidin-2-ylamino)-4-methoxy-2-morpholinophenyl)acrylamide] | < 20 nM | < 20 nM | < 20 nM | < 20 nM | < 20 nM | 201 to 1000 nM |
| C=CC(=O)Nc1cc(Nc2nccc(-n3cc(CN(C)C)c(-c4ccc(F)cc4)n3)n2)c(OC)cc1N1CCOCC1 [Compound 6, N-(5-(4-(4-((dimethylamino)methyl)-3-(4-fluorophenyl)-1H-pyrazol-1-yl)pyrimidin-2-ylamino)-4-methoxy-2-morpholinophenyl)acrylamide] | 20 to 200 nM | 20 to 200 nM | 20 to 200 nM | < 20 nM | < 20 nM | > 1000 nM |
| C=CC(=O)Nc1cc(Nc2ncc(C)c(-n3cc(CN(C)C)cn3)n2)c(OC)cc1N1CCOCC1 [Compound 22, N-(5-(4-(4-((dimethylamino)methyl)-1H-pyrazol-1-yl)-5-methylpyrimidin-2-ylamino)-4-methoxy-2-morpholinophenyl)acrylamide] | < 20 nM | < 20 nM | 20 to 200 nM | < 20 nM | < 20 nM | 20 to 200 nM |
| C=CC(=O)Nc1cc(Nc2nccc(-n3cc(CN4C[C@H](O)[C@H](OC)C4)c(C4CC4)n3)n2)c(OC)cc1N1CCOCC1 [Compound 56, N-(5-(4-(3-cyclopropyl-4-(((3S,4R)-3-hydroxy-4-methoxypyrrolidin-1-yl)methyl)-1H-pyrazol-1-yl)pyrimidin-2-ylamino)-4-methoxy-2-morpholinophenyl)acrylamide] | < 20 nM | < 20 nM | < 20 nM | < 20 nM | < 20 nM | > 1000 nM |
| C=CC(=O)Nc1cc(Nc2nccc(-n3cc(CN(C)C)c(C(C)C)n3)n2)c(OC)cc1N(C)C1COC1 [Compound 114, N-(5-(4-(4-((dimethylamino)methyl)-3-isopropyl-1H-pyrazol-1-yl)pyrimidin-2-ylamino)-4-methoxy-2-(methyl(oxetan-3-yl)amino)phenyl)acrylamide] | < 20 nM | < 20 nM | < 20 nM | < 20 nM | < 20 nM | 201 to 1000 nM |
| C=CC(=O)Nc1cc(Nc2ncc(C)c(-n3cc(CN4CCC4)cn3)n2)c(OC)cc1N1CCCN(C)CC1 [Compound 41, N-(5-(4-(4-(azetidin-1-ylmethyl)-1H-pyrazol-1-yl)-5-methylpyrimidin-2-ylamino)-4-methoxy-2-(4-methyl-1,4-diazepan-1-yl)phenyl)acrylamide] | < 20 nM | < 20 nM | < 20 nM | < 20 nM | < 20 nM | 201 to 1000 nM |
| C=CC(=O)Nc1cc(Nc2nccc(-n3cc(CN4CCC4)c(-c4ccc(F)cc4)n3)n2)c(OC)cc1N1CCOCC1 [Compound 81, N-(5-(4-(4-(azetidin-1-ylmethyl)-3-(4-fluorophenyl)-1H-pyrazol-1-yl)pyrimidin-2-ylamino)-4-methoxy-2-morpholinophenyl)acrylamide] | 201 to 1000 nM | 20 to 200 nM | 20 to 200 nM | 20 to 200 nM | 20 to 200 nM | > 1000 nM |
| C=CC(=O)Nc1cc(Nc2ncc(C)c(-n3cc(CN4CCC4)c(C(C)(C)C)n3)n2)c(OC)cc1N1CCOCC1 [Compound 67, N-(5-(4-(4-(azetidin-1-ylmethyl)-3-tert-butyl-1H-pyrazol-1-yl)-5-methylpyrimidin-2-ylamino)-4-methoxy-2-morpholinophenyl)acrylamide] | 20 to 200 nM | < 20 nM | < 20 nM | < 20 nM | < 20 nM | > 1000 nM |
| C=CC(=O)Nc1cc(Nc2nccc(-n3cc(CN(C)C)c(C4CC4)n3)n2)c(OC)cc1N(C)C1COC1 [Compound 108, N-(5-(4-(3-cyclopropyl-4-((dimethylamino)methyl)-1H-pyrazol-1-yl)pyrimidin-2-ylamino)-4-methoxy-2-(methyl(oxetan-3-yl)amino)phenyl)acrylamide] | < 20 nM | < 20 nM | < 20 nM | < 20 nM | < 20 nM | 20 to 200 nM |
| C=CC(=O)Nc1cc(Nc2ncc(Cl)c(-n3cc(CN(C)C)cn3)n2)c(OC)cc1N1CCOCC1 [Compound 77, N-(5-(5-chloro-4-(4-((dimethylamino)methyl)-1H-pyrazol-1-yl)pyrimidin-2-ylamino)-4-methoxy-2-morpholinophenyl)acrylamide] | < 20 nM | < 20 nM | < 20 nM | < 20 nM | < 20 nM | 201 to 1000 nM |
| C=CC(=O)Nc1cc(Nc2nccc(-n3cc(CN(C)CC)c(C4CC4)n3)n2)c(OC)cc1N1CCOCC1 [Compound 140, N-(5-(4-(3-cyclopropyl-4-((ethyl(methyl)amino)methyl)-1H-pyrazol-1-yl)pyrimidin-2-ylamino)-4-methoxy-2-morpholinophenyl)acrylamide] | < 20 nM | < 20 nM | < 20 nM | < 20 nM | < 20 nM | > 1000 nM |
| C=CC(=O)Nc1cc(Nc2ncc(C)c(-n3cc(CN4CCC4)cn3)n2)c(OC)cc1N1CCN(C(C)=O)CC1 [Compound 37, N-(2-(4-acetylpiperazin-1-yl)-5-(4-(4-(azetidin-1-ylmethyl)-1H-pyrazol-1-yl)-5-methylpyrimidin-2-ylamino)-4-methoxyphenyl)acrylamide] | < 20 nM | < 20 nM | < 20 nM | < 20 nM | < 20 nM | 201 to 1000 nM |
| C=CC(=O)Nc1cc(Nc2ncc(F)c(-n3cc(C)c(CN4CCC4)c3)n2)c(OC)cc1N1CCOCC1 [Compound 60, N-(5-(4-(3-(azetidin-1-ylmethyl)-4-methyl-1H-pyrrol-1-yl)-5-fluoropyrimidin-2-ylamino)-4-methoxy-2-morpholinophenyl)acrylamide] | 20 to 200 nM | < 20 nM | 20 to 200 nM | < 20 nM | < 20 nM | > 1000 nM |
| C=CC(=O)Nc1cc(Nc2ncc(Cl)c(-n3cc(CN(C)C)c(C)n3)n2)c(OC)cc1N1CCOCC1 [Compound 52, N-(5-(5-chloro-4-(4-((dimethylamino)methyl)-3-methyl-1H-pyrazol-1-yl)pyrimidin-2-ylamino)-4-methoxy-2-morpholinophenyl)acrylamide] | < 20 nM | < 20 nM | < 20 nM | < 20 nM | < 20 nM | 201 to 1000 nM |
| C=CC(=O)Nc1cc(Nc2ncc(C)c(-n3cc(CN4CC[C@H](O)C4)c(C)n3)n2)c(OC)cc1N1CCOCC1 [Compound 28, (S)—N-(5-(4-(4-((3-hydroxypyrrolidin-1-yl)methyl)-3-methyl-1H-pyrazol-1-yl)-5-methylpyrimidin-2-ylamino)-4-methoxy-2-morpholinophenyl)acrylamide] | < 20 nM | < 20 nM | < 20 nM | < 20 nM | < 20 nM | 201 to 1000 nM |
| C=CC(=O)Nc1cc(Nc2nccc(-n3cc(CN4CCC4)c(-c4ccccc4)n3)n2)c(OC)cc1N(C)C1COC1 [Compound 97, N-(5-(4-(4-(azetidin-1-ylmethyl)-3-phenyl-1H-pyrazol-1-yl)pyrimidin-2-ylamino)-4-methoxy-2-(methyl(oxetan-3-yl)amino)phenyl)acrylamide] | 20 to 200 nM | 20 to 200 nM | < 20 nM | < 20 nM | < 20 nM | > 1000 nM |
| C=CC(=O)Nc1cc(Nc2nccc(-n3cc(CN4CC[C@@H](N(C)C)C4)cn3)n2)c(OC)cc1N1CCOCC1 [Compound 39, (R)—N-(5-(4-(4-((3-(dimethylamino)pyrrolidin-1-yl)methyl)-1H-pyrazol-1-yl)pyrimidin-2-ylamino)-4-methoxy-2-morpholinophenyl)acrylamide] |  | 201 to 1000 nM | 201 to 1000 nM | 201 to 1000 nM | 20 to 200 nM | > 1000 nM |
